The values that follow come from patent publication US5952298A, “Cryptophycins” (priority 1995, dated 1999).

Data set [1] relates to SKOV3 (human ovarian carcinoma). The data set is described as follows: Cytotoxicity against SKOV3 cell line (Table 2). In kind it is cell-based.
For data set [2], the system named is LoVo (human colon carcinoma). In words: Cytotoxicity against LoVo cell line. It is filed as cell-based.
Data set [3] concerns KB (human nasopharyngeal carcinoma). The data set is described as follows: Cytotoxicity against KB cell line. In kind it is cell-based.
Data set [4] deals with pancreatic ductal adenocarcinoma #03 (Panc 03, P03). The conditions noted are these: SC P03.
For data set [5], the system named is murine and human tumors implanted in mice.
Description: Gross log kill is defmed as T-C/3.2 Td where T is the median time in days for the tumors of the treated group to reach 750 mg, C is the median time in days for the tumors of the control group to reach 750 mg, and Td is the tumor volume doubling time. […] An activity rating of +++ to ++++, which is indicative of clinical activity, is needed to effect partial or complete regression of 100-300 mg size masses of most transplanted solid tumors of mice.
Data set [6] deals with murine leukemia (L1210 or P388), murine solid tumor, human solid tumor and low malignancy fibroblast (LML) cells.
Where [7] appears, read: Exp 1843, 7 IV inj., 23 mg/kg TD.
The mark [8] stands for this setting: Exp 1843, 4 IV inj., 28/5 mg/kg TD.
Setting [9] is: Exp 1813, 9 IV inj., 27 mg/kg TD.
[10] abbreviates: Exp 1878, 9 IV inj., 82 mg/kg TD.

Read-outs that look alike come from different tables or passages of the source. Where only a bound is given, the exact number is not on record here.

In the case of `CC(C)C[C@@H]1OC(=O)[C@H](C)CNC(=O)[C@@H](Cc2ccc(O)c(Cl)c2)NC(=O)/C=C/C[C@@H]([C@H](C)/C=C/c2ccccc2)OC1=O` [Cryptophycin 17], the “SKOV3 IC50” value in data set [1] was 11 ng/mL. Besides, the “LoVo IC50” value in data set [2] (Table 2) turned out to be 5.9 ng/mL. Further, the “KB IC50” value in data set [3] (Table 2) was 4.7 ng/mL.

Regarding `COc1ccc(CC2NC(=O)CCCC(C(C)C3OC3c3ccccc3)OC(=O)C(CC(C)C)OC(=O)C(C)CNC2=O)cc1Cl` (centres unmarked) [Cryptophycin 35], in data set [4] (setting [7]), the “% Body Wt. Loss at Nadir” value is -2%; the Cures was 0/5; the “Log Kill” value is 1.3; the T/C (as a rule, the result in the treated group divided by that in the control group, in per cent) is reported as 11%. Moreover, in data set [5], the “in vivo activity (in words)” value is reported as “Good in vivo activity”.

Turning to `CC[C@H](C)[C@@H]1OC(=O)[C@H](C)CNC(=O)[C@@H](Cc2ccc(OC)c(Cl)c2)NC(=O)/C=C/C[C@@H]([C@H](C)/C=C/c2ccccc2)OC1=O` [Cryptophycin 18], in data set [1], the “SKOV3 IC50” value amounted to 23 ng/mL. Besides, the “LoVo IC50” value in data set [2] (Table 2) is 4.5 ng/mL.

As to `COc1ccc(C[C@H]2NC(=O)/C=C/C[C@@H]([C@H](C)[C@@H](O)[C@@H](OC)c3ccccc3)OC(=O)[C@H](CC(C)C)OC(=O)[C@H](C)CNC2=O)cc1Cl` [Cryptophycin 9], in data set [3] (Table 1), the “KB IC50” value came out at 15 ng/mL.

On to `COc1c(Cl)cc(C[C@H]2NC(=O)/C=C/C[C@@H]([C@H](C)[C@H]3O[C@@H]3c3ccccc3)OC(=O)[C@H](CC(C)C)OC(=O)[C@H](C)CNC2=O)cc1Cl` [Cryptophycin 31], for which the “SKOV3 IC50” value in data set [1] was 1.9 ng/mL. Also, the “LoVo IC50” value in data set [2] (Table 2) stood at 0.062 ng/mL. The “KB IC50” value in data set [3] (Table 2) was 0.53 ng/mL.

Turning to `COc1ccc(C[C@@H](NC(=O)/C=C/C[C@@H]2O[C@@H](c3ccccc3)[C@H](O)[C@H]2C)C(=O)O)cc1Cl` [Cryptophycin 7], the “LoVo IC50” value in data set [2] (Table 1) is ≥ 480 ng/mL. In addition, in data set [3] (Table 1), the “KB IC50” value is given as ≥ 750 ng/mL.

Consider `COc1ccc(C[C@H]2NC(=O)/C=C/C[C@@H](C[C@H]3O[C@@H]3c3ccccc3)OC(=O)[C@H](CC(C)C)OC(=O)[C@H](C)CNC2=O)cc1Cl` [Cryptophycin 40], for which the “LoVo IC50” value in data set [2] (Table 2) is recorded as 1.0 ng/mL. For the same compound, the “KB IC50” value in data set [3] (Table 2) is 9.0 ng/mL.

In the case of `COc1ccc(C[C@H]2NC(=O)/C=C/C[C@@H]([C@H](C)/C=C/c3ccccc3)OC(=O)[C@H](CC(C)C)OC(=O)[C@H](C)CNC2=O)cc1Cl` [Cryptophycin 3], the “SKOV3 IC50” value in data set [1] was 2.8 ng/mL. In addition, the “LoVo IC50” value in data set [2] (Table 1) worked out at 0.5 ng/mL. For the same compound, the “LoVo IC50” value in data set [2] (Table 2) was determined as 0.6 ng/mL. Also, in data set [3] (Table 1), the “KB IC50” value amounted to 0.3 ng/mL. Moreover, in data set [6] (25 μg/disk), the “Differential in Zone Units, Corbett Assay” value (from here on “Differential in Zone Units”) is reported as > 400 zone units and the “Type of Cytotoxicity, Corbett Assay” value is recorded as “E/T”. In addition, in data set [4] (setting [8]), the “% Body Wt. Loss at Nadir” value was -9%, the Cures was 0/5, the “Log Kill” value is listed as < 1 and the T/C came out at 54%.

Take `COc1ccc(C[C@H]2NC(=O)/C=C/C[C@@H]([C@H](C)[C@H]3O[C@@H]3c3ccccc3)OC(=O)[C@H](CC(C)C)OC(=O)CCNC2=O)cc1Cl` [Cryptophycin 21]: in data set [1], the “SKOV3 IC50” value stood at 0.029 ng/mL. The “LoVo IC50” value in data set [2] (Table 2) was 0.0003 ng/mL. Moreover, in data set [4] (setting [9]), the “% Body Wt. Loss at Nadir” value was -11%, the Cures was 0/5, the “Log Kill” value was “None” and the T/C came out at 61%. Also, the “dead (animals)” value in data set [4] (setting [9]) is given as 1/5.

Turning to `COc1ccc(C[C@H]2NC(=O)/C=C/C[C@@H]([C@H](C)/C=C/c3ccccc3)OC(=O)[C@H](C(C)C)OC(=O)[C@H](C)CNC2=O)cc1Cl` [Cryptophycin 19], the “SKOV3 IC50” value in data set [1] was found to be 41 ng/mL. Moreover, the “KB IC50” value in data set [3] (Table 2) stood at 9.8 ng/mL.

For the compound `COc1ccc(C[C@H]2NC(=O)/C=C/C[C@@H]([C@H](C)/C=C/c3ccccc3)OC(=O)[C@H](CC(C)C)OC(=O)CCNC2=O)cc1Cl` [Cryptophycin 29], the “SKOV3 IC50” value in data set [1] was 3.4 ng/mL. For the same compound, in data set [2] (Table 2), the “LoVo IC50” value was 0.49 ng/mL.

With `COc1ccc(C[C@H]2NC(=O)/C=C/C[C@@H]([C@H](C)[C@H]3O[C@@H]3c3ccccc3)OC(=O)[C@H](CC(C)C)OC(=O)CCNC2=O)cc1` [Cryptophycin 24], the “SKOV3 IC50” value in data set [1] was found to be 0.3 ng/mL. The “LoVo IC50” value in data set [2] (Table 2) was found to be 0.095 ng/mL. Besides, the “KB IC50” value in data set [3] (Table 2) is recorded as 0.12 ng/mL.

For the compound `COc1ccc(C[C@H]2NC(=O)/C=C/C[C@@H](C/C=C/c3ccccc3)OC(=O)[C@H](CC(C)C)OC(=O)[C@H](C)CNC2=O)cc1Cl` [Cryptophycin 28], the “SKOV3 IC50” value in data set [1] was 6.1 ng/mL. Besides, the “LoVo IC50” value in data set [2] (Table 2) was found to be 0.75 ng/mL. Also, the “KB IC50” value in data set [3] (Table 2) was 1.5 ng/mL.

Regarding `CC(C)C[C@@H]1OC(=O)[C@H](C)CNC(=O)[C@@H](Cc2ccc(O)c(Cl)c2)NC(=O)/C=C/C[C@@H]([C@H](C)[C@H]2O[C@@H]2c2ccccc2)OC1=O` [Cryptophycin 16], the “SKOV3 IC50” value in data set [1] was determined as 0.64 ng/mL. Further, in data set [3] (Table 2), the “KB IC50” value is given as 0.08 ng/mL. Also, in data set [4] (setting [10]), the “% Body Wt. Loss at Nadir” value is given as -1%, the Cures is recorded as 0/5, the “Log Kill” value is listed as “None” and the T/C is recorded as 89%.

As to `COc1ccc(C[C@H]2NC(=O)/C=C/C[C@@H]([C@H](C)/C=C/c3ccccc3)OC(=O)[C@H](CC(C)C)OC(=O)[C@H](C)CNC2=O)cc1` [Cryptophycin 4], the “SKOV3 IC50” value in data set [1] is 21 ng/mL. In data set [2] (Table 2), the “LoVo IC50” value stood at 2.5 ng/mL. The “KB IC50” value in data set [3] (Table 1) stood at 1.3 ng/mL. For the same compound, in data set [6] (20 μg/disk), the “Differential in Zone Units” value was > 400 zone units and the “Type of Cytotoxicity, Corbett Assay” value was “E/T”.

For the compound `COC(=O)[C@H](C)CNC(=O)[C@@H](Cc1ccc(OC)c(Cl)c1)NC(=O)/C=C/C[C@H](OC(=O)[C@@H](O)CC(C)C)[C@H](C)[C@H]1O[C@@H]1c1ccccc1` [Cryptophycin 5], the “SKOV3 IC50” value in data set [1] is given as 7.4 ng/mL. Further, the “KB IC50” value in data set [3] (Table 1) was determined as 0.02 ng/mL; in data set [3] (Table 2) it was 12 ng/mL.

On to `COc1ccc(C[C@H]2NC(=O)/C=C/C[C@@H]([C@H](C)[C@H]3O[C@@H]3c3ccccc3)OC(=O)[C@H](CC(C)C)OC(=O)[C@H](C)CNC2=O)cc1` [Cryptophycin 2], for which the “SKOV3 IC50” value in data set [1] was found to be 0.18 ng/mL. The entries for the “LoVo IC50” value in data set [2] (Table 1) and in data set [2] (Table 2) were 0.0002 ng/mL and 0.021 ng/mL, respectively. For the same compound, the “Differential in Zone Units” value in data set [6] (25 μg/disk) was > 400 zone units. In addition, the “Type of Cytotoxicity, Corbett Assay” value in data set [6] (25 μg/disk) is “E/T”.

On to `COc1ccc(C[C@H]2NC(=O)C[C@H](O)C[C@@H]([C@H](C)/C=C/c3ccccc3)OC(=O)[C@H](CC(C)C)OC(=O)[C@H](C)CNC2=O)cc1Cl` [Cryptophycin 30], for which, in data set [3] (Table 2), the “KB IC50” value worked out at 11 ng/mL.

As to `COc1ccc(C[C@@H](NC(=O)/C=C/C[C@H](O)[C@H](C)/C=C/c2ccccc2)C(=O)NC[C@@H](C)C(=O)O)cc1Cl` [Cryptophycin 14], the “KB IC50” value in data set [3] (Table 1) is listed as 1.8 ng/mL.

In the case of `COc1ccc(C[C@H]2NC(=O)C[C@@H](C[C@H](O)[C@H](C)/C=C/c3ccccc3)OC(=O)[C@H](CC(C)C)OC(=O)[C@H](C)CNC2=O)cc1Cl` [Cryptophycin 26], the “SKOV3 IC50” value in data set [1] is 95 ng/mL. The “LoVo IC50” value in data set [2] (Table 2) is 9.8 ng/mL. Further, the “KB IC50” value in data set [3] (Table 2) was 19 ng/mL.

Regarding `COc1ccc(C[C@H]2NC(=O)CCC[C@@H]([C@H](C)[C@H]3O[C@@H]3c3ccccc3)OC(=O)[C@H](CC(C)C)OC(=O)[C@H](C)CNC2=O)cc1Cl` [Cryptophycin 35], the “SKOV3 IC50” value in data set [1] was determined as 0.092 ng/mL. The “KB IC50” value in data set [3] (Table 2) was 0.055 ng/mL.

`COc1ccc(C[C@@H](NC(=O)/C=C/C[C@@H]2O[C@@H](c3ccccc3)[C@H](O)[C@H]2C)C(=O)NC[C@@H](C)C(=O)O)cc1Cl` [Cryptophycin 12]: the “LoVo IC50” value in data set [2] (Table 1) is given as ≥ 100 ng/mL. In addition, the figures for the “KB IC50” value in data set [3] (Table 1) and in data set [3] (Table 2) were ≥ 100 ng/mL and 18 ng/mL, respectively.

As to `CC[C@H](C)[C@@H]1OC(=O)[C@H](C)CNC(=O)[C@@H](Cc2ccc(OC)c(Cl)c2)NC(=O)/C=C/C[C@@H]([C@H](C)[C@H]2O[C@@H]2c2ccccc2)OC1=O` [Cryptophycin 54], in data set [1], the “SKOV3 IC50” value was determined as 2.2 ng/mL. Moreover, the “LoVo IC50” value in data set [2] (Table 2) was 2.2 ng/mL. Moreover, in data set [3] (Table 2), the “KB IC50” value was found to be 0.80 ng/mL.
